# Assay results taken from US8569295B2, “Bicyclic urea compounds” (Merck Patent GmbH, priority 2009, dated 2013).
# Target: T1, GST-Aurora A (Homo sapiens, UniProt O14965)
# T1 construct: N-terminal GST fusion with full length Aurora A (1-403 amino acids); purchased Carna Biosciences 05-101
# T1 sequence (O14965 1-403): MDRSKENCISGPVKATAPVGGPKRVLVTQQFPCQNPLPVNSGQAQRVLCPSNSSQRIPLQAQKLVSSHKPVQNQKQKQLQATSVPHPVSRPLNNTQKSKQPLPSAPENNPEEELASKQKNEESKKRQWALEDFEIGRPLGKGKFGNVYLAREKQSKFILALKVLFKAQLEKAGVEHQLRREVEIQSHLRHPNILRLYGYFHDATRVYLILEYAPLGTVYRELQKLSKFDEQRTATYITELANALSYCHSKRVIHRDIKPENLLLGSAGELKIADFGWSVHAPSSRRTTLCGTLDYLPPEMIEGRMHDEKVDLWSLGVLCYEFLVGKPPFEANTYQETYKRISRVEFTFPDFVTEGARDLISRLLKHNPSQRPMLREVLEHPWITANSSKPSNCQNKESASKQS
# Assay: Aurora A kinase biochemical mobility shift assay (Caliper LC3000 / Desktop Profiler)
# Details: AK A (Aurora kinase A) inhibition
# Method: The Aurora assays described here are performed on two Caliper Life Sciences systems: the LC3000 and the Desktop Profiler. The RON kinase assays are performed on the Desktop Profiler only. These provide data on enzyme activity via measurement of the relative amounts of phosphorylated or unphosphorylated fluorescently labelled substrate peptide at the end of an enzymatic reaction. These different states of peptide are resolved by applying a potential difference across the sample. The presence of the charged phosphate group on the product (as opposed to the substrate) causes a different peptide mobility between the two peptides. This is visualized by excitation of the fluorescent label on the substrate and product peptides and represented as peaks within the analysis software.
# In order to measure inhibitor activity of Aurora A inhibitors in the Caliper Life Sciences LC3000, a TTP Mosquito liquid handling instrument is used to place 0.25 ul of the appropriate concentration of inhibitor in 100% DMSO (for a dose response curve calculation) into each well of a 384-well plate. To this reaction components are added to a final volume of 25 ul: • 0.067 ng/ul GST-Aurora A (Carna Biosciences 05-101. N-terminal GST fusion with full length Aurora A (1-403 amino acids), accession number NP_940835.1). • 15 uM ATP (Fluka, 02055) • 1 mM DTT (Sigma, D0632) • 1 mM MgCl2 (Sigma, M1028) • 1 uM substrate peptide (sequence FITC-LRRASLG-(CONH2), synthesized by Tufts Peptide Synthesis service. • 100 mM HEPES pH 7.5 (Calbiochem, 391338) • 0.015% Brij-35 (Sigma, B4184)
# The reaction is incubated for 90 min at 25 C, and then stopped by the addition of 70 ul of Stop buffer (100 mM HEPES pH 7.5, 0.015% Brij-35, 10 mM EDTA (Sigma, E7889)).
# The plate is read on a Caliper LC3000 in an Off-Chip mobility shift assay format, using the following parameters for a 12-sipper chip: screening pressure −1.8 psi, upstream voltage −2700, downstream voltage −1000. These conditions cause unphosphorylated substrate and phosphorylated product peptide to resolve as separate peaks allowing direct measurement of percentage of conversion of substrate to product. The percent conversion can be plotted against concentration of inhibitor to produce a sigmoidal dose response curve, from which an IC50 can be calculated using XLFit for Microsoft Excel.
# The Desktop Profiler utilizes the same priniciple as the LC3000 for calculating percentage conversion of a substrate to product. Caliper Life Sciences provides proprietary flash frozen pre-made 384 well plates containing selected kinases. Each column in the 384 well plate contains a particular selected kinase. A second plate, the ‘substrate plate’ contains a mix of fluorescently labeled peptide substrate and ATP. These are arranged in columns so that transfer for substrate plate to enzyme plate provides the correct enzyme with the correct substrate/ATP concentration. Compounds are added to a thawed enzyme plate in the desired format, in single concentrations. Reactions are initiated by transfer of the substrate/ATP mix from the substrate plate. The enzyme plate is incubated for 90 minutes at 25 C. The reaction is stopped by addition of 70 ul of Stop Buffer (100 mM HEPES pH 7.5, 0.015% Brij-35, 10 mM EDTA (Sigma, E7889)).
# Reading of the plate in the Profiler is identical to the LC3000, and the ratio between substrate and product peaks provides the activity of the enzyme in that well. This is best represented by a plate heat map which colors each well by percent inhibition as compared to positive and negative controls (no inhibitors and no ATP respectively).
row,SMILES,IC50 [nM]
1,COc1ccc(CN2Cc3c(Nc4ccc(NC(=O)c5ccccc5)cc4)ccnc3NC2=O)cc1 [Example 2],100 to 1000
2,"O=C1NCc2c(Nc3ccc(NC(=O)c4ccccc4)cc3)ccnc2N1 [Example 4, N-(4-(2-oxo-1,2,3,4-tetrahydropyrido [2,3-d]pyrimidin-5-ylamino)phenyl)benzamide]",10 to 100
3,"CN1Cc2c(Nc3ccc(NC(=O)c4ccc(F)cc4C(F)(F)F)cc3)ccnc2NC1=O [Example 21, 4-fluoro-N-(4-(3-methyl-2-oxo-1,2,3,4-tetrahydropyrido [2,3-d]pyrimidin-5-ylamino)phenyl)-2-(trifluoromethyl) benzamide]",< 10
4,"CN1Cc2c(Nc3ccc(NC(=O)c4ccccc4)cc3)ccnc2NC1=O [Example 22, N-(4-(3-methyl-2-oxo-1,2,3,4-tetrahydropyrido [2,3-d]pyrimidin-5-ylamino)phenyl) benzamide]",10 to 100
5,"CN1Cc2c(Nc3ccc(NC(=O)CC4CC4)cc3)ccnc2NC1=O [Example 23, 2-cyclopropyl-N-(4-(3-methyl-2-oxo-1,2,3,4-tetrahydropyrido [2,3-d]pyrimidin-5-ylamino)phenyl) acetamide]",100 to 1000
6,"CN1Cc2c(Nc3ccc(NC(=O)CC(F)(F)F)cc3)ccnc2NC1=O [Example 24, 3,3,3-trifluoro-N-(4-(3-methyl-2-oxo-1,2,3,4-tetrahydropyrido [2,3-d]pyrimidin-5-ylamino)phenyl) propanamide]",100 to 1000
7,"O=C(Nc1ccc(Nc2ccnc3c2CN(c2ccccc2)C(=O)N3)c(F)c1)c1cccc(F)c1 [Example 26, 3-fluoro-N-(3-fluoro-4-(2-oxo-3-phenyl-1,2,3,4-tetrahydropyrido [2,3-d]pyrimidin-5-ylamino)phenyl) benzamide]",10 to 100
8,"O=C(Nc1ccc(Nc2ccnc3c2CN(c2ccccc2)C(=O)N3)cc1)c1ccc(F)cc1C(F)(F)F [Example 27, 4-fluoro-N-(4-(2-oxo-3-phenyl-1,2,3,4-tetrahydropyrido [2,3-d]pyrimidin-5-ylamino)phenyl)-2-(trifluoromethyl) benzamide]",10 to 100
9,"CN1Cc2c(Nc3ccc(NC(=O)c4ccc(F)cc4C(F)(F)F)cc3F)ccnc2NC1=O [Example 28, 4-fluoro-N-(3-fluoro-4-(3-methyl-2-oxo-1,2,3,4-tetrahydropyrido [2,3-d]pyrimidin-5-ylamino)phenyl)-2-(trifluoromethyl) benzamide]",< 10
10,"O=C(Nc1ccc(Nc2ccnc3c2CN(CCO)C(=O)N3)cc1)c1ccc(F)cc1C(F)(F)F [Example 30, 4-fluoro-N-(4-(3-(2-hydroxyethyl)-2-oxo-1,2,3,4-tetrahydropyrido [2,3-d]pyrimidin-5-ylamino)phenyl)-2-(trifluoromethyl) benzamide]",10 to 100
11,"O=C(Nc1ccc(Nc2ccnc3c2CN(CCCO)C(=O)N3)cc1)c1ccc(F)cc1C(F)(F)F [Example 32, 4-fluoro-N-(4-(3-(3-hydroxypropyl)-2-oxo-1,2,3,4-tetrahydropyrido [2,3-d]pyrimidin-5-ylamino)phenyl)-2-(trifluoromethyl) benzamide]",< 10
12,"CCN1Cc2c(Nc3ccc(NC(=O)c4ccc(F)cc4C(F)(F)F)cc3)ccnc2NC1=O [Example 34, N-(4-(3-ethyl-2-oxo-1,2,3,4-tetrahydropyrido [2,3-d]pyrimidin-5-ylamino)phenyl)-4-fluoro-2-(trifluoromethyl) benzamide]",< 10
13,"CCN1Cc2c(Nc3ccc(NC(=O)c4ccccc4)cc3)ccnc2NC1=O [Example 35, N-(4-(3-ethyl-2-oxo-1,2,3,4-tetrahydropyrido [2,3-d]pyrimidin-5-ylamino)phenyl) benzamide]",10 to 100
14,"O=C(Nc1ccc(Nc2ccnc3c2CN(CC(F)(F)F)C(=O)N3)cc1)c1ccccc1 [Example 37, N-(4-(2-oxo-3-(2,2,2-trifluoroethyl)-1,2,3,4-tetrahydropyrido[2,3-d]pyrimidin-5-ylmino)phenyl)benzamide]",10 to 100

# The next lines start with the values.
row,IC50 [nM],SMILES
1,100 to 1000,"COc1ccc(CN2Cc3c(Nc4ccc(NC(=O)c5ccc(F)cc5C(F)(F)F)cc4)ccnc3NC2=O)cc1 [Example 5, 4-fluoro-N-(4-(3-(4-methoxybenzyl)-2-oxo-1,2,3,4-tetrahydropyrido [2,3-d]pyrimidin-5-ylamino)phenyl)-2-(trifluoromethyl) benzamide]"
2,< 10,"O=C1NCc2c(Nc3ccc(NC(=O)c4ccc(F)cc4C(F)(F)F)cc3)ccnc2N1 [Example 6, 4-fluoro-N-(4-(2-oxo-1,2,3,4-tetrahydropyrido[2,3-d]pyrimidin-5-ylamino)phenyl)-2-(trifluoromethyl) benzamide]"
3,100 to 1000,"O=C(Nc1ccc(Nc2ccnc3c2CN(c2ccc(CN4CCCC4)cc2)C(=O)N3)cc1)c1ccc(F)cc1C(F)(F)F [Example 8, 4-fluoro-N-(4-(2-oxo-3-(4-(pyrrolidin-1-ylmethyl)phenyI)-1,2,3,4-tetrahydropyrido[2,3-d]pyrimidin-5-ylamino)phenyl)-2-(trifluoromethyl)benzamide]"
4,100 to 1000,"O=C(Nc1ccc(Nc2ccnc3c2CN(c2ccc(CN4CCCC4)cc2)C(=O)N3)cc1)c1ccccc1 [Example 9, N-(4-(2-oxo-3-(4-(pyrrolidin-1-ylmethyl)phenyl)-1,2,3,4-tetrahydropyrido[2,3-d]pyrimidin-5-ylamino)phenyl)benzamide]"
5,100 to 1000,"CN(C)CCN1Cc2c(Nc3ccc(NC(=O)c4ccc(F)cc4C(F)(F)F)cc3)ccnc2NC1=O [Example 11, N-(4-(3-(2-(dimethylamino)ethyl)-2-oxo-1,2,3,4-tetrahydropyrido [2,3-d]pyrimidin-5-ylamino)phenyl)-4-fluoro-2-(trifluoromethyl) benzamide]"
6,100 to 1000,"O=C(Nc1ccc(Nc2ccnc3c2CN(C2CC2)C(=O)N3)cc1)c1ccccc1 [Example 14, N-(4-(3-cyclopropyl-2-oxo-1,2,3,4-tetrahydropyrido[2,3-d]pyrimidin-5-ylamino)phenyl) benzamide]"
7,10 to 100,"O=C(Nc1ccc(Nc2ccnc3c2CN(C2CC2)C(=O)N3)cc1)c1ccc(F)cc1C(F)(F)F [Example 15, N-(4-(3-cyclopropyl-2-oxo-1,2,3,4-tetrahydropyrido [2,3-d]pyrimidin-5-ylamino)phenyl)-4-fluoro-2-(trifluoromethyl) benzamide]"
8,< 10,"CN1Cc2c(Nc3ccc(NC(=O)c4cccc(F)c4)cc3F)ccnc2NC1=O [Example 20, 3-fluoro-N-(3-fluoro-4-(3-methyl-2-oxo-1,2,3,4-tetrahydropyrido [2,3-d]pyrimidin-5-ylamino)phenyl) benzamide]"
9,10 to 100,"O=C(Nc1ccc(Nc2ccnc3c2CN(CCCN2CCCC2=O)C(=O)N3)cc1)c1ccc(F)cc1C(F)(F)F [Example 31, 4-fluoro-N-(4-(2-oxo-3-(3-(2-oxopyrrolidin-1-yl)propyl)-1,2,3,4-tetrahydropyrido [2,3-d]pyrimidin-5-ylamino)phenyl)-2-(trifluoromethyl) benzamide]"
10,< 10,"CCN1Cc2c(Nc3ccc(NC(=O)c4ccc(F)cc4C(F)(F)F)cc3F)ccnc2NC1=O [Example 36, N-(4-(3-ethyl-2-oxo-1,2,3,4-tetrahydropyrido [2,3-d]pyrimidin-5-ylamino)-3-fluorophenyl)-4-fluoro-2-(trifluoromethyl) benzamide]"
